These results are taken from ChEMBL document CHEMBL1828565, “Potential AMPK activators of cucurbitane triterpenoids from Siraitia grosvenorii Swingle” (Bioorg Med Chem, 2011).

Activity calls are given as the source filed them. The rule behind the calls is not given here.

The first assay concerns the target T1, AMP-activated protein kinase, AMPK (Homo sapiens) (UniProt P54646+O43741+P54619+Q9UGJ0+Q9Y478+Q13131+Q9UGI9). Description: Activation of AMPK in human HepG2 cells assessed as increase in AMPK phosphorylation at 10 uM after 30 mins by Western blotting. The class given is cell-based.
`CC(C)C(=O)CC[C@@H](C)[C@H]1CC[C@@]2(C)[C@@H]3CC=C4[C@@H](CC[C@@H](O)C4(C)C)[C@]3(C)[C@H](O)C[C@]12C`: the outcome was Active.

Another assay addresses T1, AMP-activated protein kinase, AMPK (Homo sapiens). The assay is described as follows: Activation of AMPK in human HepG2 cells assessed as increase in AMPK phosphorylation at 1 to 20 uM after 30 mins by Western blotting. In kind it is cell-based. Background: In western blotting, separated proteins are transferred to a membrane and probed.
As for `C[C@H](CC[C@@H](O)C(C)(C)O)[C@H]1CC[C@@]2(C)[C@@H]3CC=C4[C@@H](CC[C@H](O)C4(C)C)[C@]3(C)C(=O)C[C@]12C`, the outcome was Active.

As for `COC(C)(C)[C@H](O)CC[C@@H](C)[C@H]1CC[C@@]2(C)[C@@H]3CC=C4[C@@H](CC[C@H](O)C4(C)C)[C@]3(C)C(=O)C[C@]12C`, the result was Active.

Consider `C[C@H](CC[C@@H](O)C(C)(C)O)[C@H]1CC[C@@]2(C)[C@@H]3CC=C4[C@@H](CC[C@@H](O)C4(C)C)[C@]3(C)[C@H](O)C[C@]12C`, for which the outcome was Active.

For the molecule `COc1ccc2cc3[n+](cc2c1OC)CCc1cc2c(cc1-3)OCO2`, the result was Active.

Regarding `C[C@H](CC[C@@H](O[C@@H]1O[C@H](CO[C@@H]2O[C@H](CO)[C@@H](O)[C@H](O)[C@H]2O)[C@@H](O)[C@H](O)[C@H]1O[C@@H]1O[C@H](CO)[C@@H](O)[C@H](O)[C@H]1O)C(C)(C)O)[C@H]1CC[C@@]2(C)[C@@H]3CC=C4[C@@H](CC[C@H](O[C@@H]5O[C@H](CO[C@@H]6O[C@H](CO)[C@@H](O)[C@H](O)[C@H]6O)[C@@H](O)[C@H](O)[C@H]5O)C4(C)C)[C@]3(C)[C@H](O)C[C@]12C`, the result was inactive.

Consider `C[C@H](CC[C@@H](O)C(C)(C)O)[C@H]1CC[C@@]2(C)[C@@H]3CC=C4[C@@H](CC[C@H](O)C4(C)C)[C@]3(C)[C@H](O)C[C@]12C`, for which the result was Active.

For the molecule `CC(C)C(=O)CC[C@@H](C)[C@H]1CC[C@@]2(C)[C@@H]3CC=C4[C@@H](CC[C@H](O)C4(C)C)[C@]3(C)[C@H](O)C[C@]12C`, the result was Active.

As to `COC(C)(C)[C@H](O)CC[C@@H](C)[C@H]1CC[C@@]2(C)[C@@H]3CC=C4[C@@H](CC[C@H](O)C4(C)C)[C@]3(C)[C@H](O)C[C@]12C`, the result was Active.

On to `CC(C)C(=O)CC[C@@H](C)[C@H]1CC[C@@]2(C)[C@@H]3CC=C4[C@@H](CC[C@H](O)C4(C)C)[C@]3(C)C(=O)C[C@]12C`, for which the outcome was Active.
